Here are results for 4 molecules from patent US4038287A, “Compounds of allantoin with basic amino acids” (Kawaken Fine Chemicals Co., Ltd., priority 1975, dated 1977).

Type in all cases: physicochemical
A short description of series [1]: Solubility (wt.% at 20° C.) in water and alcohol-water solutions. The following applies: for solubility: water. The source says: (§1) The solubility of pure allantoin at room temperature is 0.6 wt. % in water, 1.0 wt. % in glycerol and 0.3 wt. % in 50 vol. % aqueous solution of ethyl alcohol. In contrast, the solubilities of the compounds of the present invention in the aforementioned solvents are shown in Table I. It will be understood from Table I that all compounds of the present invention can be dissolved to make present in the solution much more allantoin than can be obtained by dissolving allantoin, per se.
Solubility (wt.% at 20° C.)

Series [2] is described as follows: Dissolved amount of allantoin component of the compounds. The following applies: 20° C.
Source text: as §1
Also, comparing the dissolved amount of the allantoin component of the compounds according to the present invention and that allantoin, per se, the former is about fifteen times greater than that of allantoin, per se, and the effects of allantoin are thereby improved.

Series [3] is described as follows: pH of a saturated solution in water. The source says:
Referring to the pH of a saturated solution obtained by dissolving the compounds of the present invention, respectively, in water, the solution pH of allantoin/arginine molecular compound was 8.5, that of allantoin/ornithine molecular compound was 9.0 and that of allantoin/lysine compound was 8.9. When the pH of the respective saturated solutions of compounds according to the invention was adjusted, with HCl solution, to the pH value of a saturated solution of pure allantoin in water, namely 5 to 6, and even though the saturated solutions of the compounds according to the invention contain a higher concentration of allantoin than that of a saturated solution of pure allantoin, no crystals of allantoin precipitated from the respective solutions of compounds according to the invention.

The nature of another series: physchem.
Source text: as §1

Converted amounts (≈) assume the structure as drawn.

As usually defined, the solubility is how much of the substance goes into solution per volume. Low values mean a poorly soluble substance, high ones a readily soluble substance. With `NC(=O)NC1NC(O)(NCCCCC(N)C(=O)O)NC1=O` (stereo not shown) [Allantoin/lysine compound (C)], in series [1], the “Solubility in 50% ethyl alcohol-water solution” value came out at 9.6 wt.%, the “Solubility in 50% isopropyl alcohol-water solution” value stood at 4.8 wt.%, the “Solubility in 50% methyl alcohol-water solution” value turned out to be 21.7 wt.% and the solubility worked out at 300 mg/mL (≈ 986 mM). Further, in series [2], the “Dissolved amount of allantoin component, 50% ethyl alcohol-water solution” value is recorded as 5.0 wt.%; the “Dissolved amount of allantoin component, 50% isopropyl alcohol-water solution” value is given as 2.5 wt.%; the “Dissolved amount of allantoin component, 50% methyl alcohol-water solution” value was determined as 11.3 wt.%; the “Dissolved amount of allantoin component, water” value was 15.6 wt.%. In series [3], the “pH of a saturated solution in water” value was determined as 8.9.
As for `NC(=O)NC1NC(=O)NC1=O` (stereo not shown) [Allantoin, allantoin], in series [1], the “Solubility in 50% ethyl alcohol-water solution” value stood at 0.3 wt.%, the “Solubility in 50% isopropyl alcohol-water solution” value was found to be 0.1 wt.%, the “Solubility in 50% methyl alcohol-water solution” value came to 0.5 wt.% and the solubility stood at 6 mg/mL (≈ 37.9 mM). Besides, in “physchem”, the “Solubility of pure allantoin in 50 vol. % aqueous solution of ethyl alcohol” value is recorded as 0.3 wt. % and the “Solubility of pure allantoin in glycerol” value is on record as 1.0 wt. %. The same molecule returned a solubility in the series “physchem” (water) of 6 mg/mL (≈ 37.9 mM).
Consider `N=C(NCCCC(N)C(=O)O)NC1(O)NC(=O)C(NC(N)=O)N1` (stereo not shown) [Allatoin/arginine (1:1) compound (A)], for which, in series [1], the “Solubility in 50% ethyl alcohol-water solution” value came out at 19.8 wt.%, the “Solubility in 50% isopropyl alcohol-water solution” value is reported as 9.9 wt.%, the “Solubility in 50% methyl alcohol-water solution” value was found to be 43.3 wt.% and the solubility was determined as 603 mg/mL (≈ 1810 mM). For the same molecule, in series [2], the “Dissolved amount of allantoin component, 50% ethyl alcohol-water solution” value amounted to 9.4 wt.%; the “Dissolved amount of allantoin component, 50% isopropyl alcohol-water solution” value turned out to be 4.6 wt.%; the “Dissolved amount of allantoin component, 50% methyl alcohol-water solution” value came to 20.2 wt.%; the “Dissolved amount of allantoin component, water” value was 28.2 wt.%. In series [3], the “pH of a saturated solution in water” value was 8.5.
For `NC(=O)NC1NC(O)(NCCCC(N)C(=O)O)NC1=O` (stereo not shown) [Allantoin/ornithine compound (B)], in series [1], the “Solubility in 50% ethyl alcohol-water solution” value came to 12.3 wt.%, the “Solubility in 50% isopropyl alcohol-water solution” value was 6.6 wt.%, the “Solubility in 50% methyl alcohol-water solution” value is recorded as 26.2 wt.% and the solubility was 405 mg/mL (≈ 1400 mM). For the same molecule, in series [2], the “Dissolved amount of allantoin component, 50% ethyl alcohol-water solution” value worked out at 6.7 wt.%; the “Dissolved amount of allantoin component, 50% isopropyl alcohol-water solution” value is on record as 3.6 wt.%; the “Dissolved amount of allantoin component, 50% methyl alcohol-water solution” value was found to be 14.3 wt.%; the “Dissolved amount of allantoin component, water” value is reported as 22.1 wt.%. The “pH of a saturated solution in water” value in series [3] amounted to 9.0.
